Reference: patent US20250073242A1, “SLC26A3 INHIBITORS AND USE THEREOF” (THE REGENTS OF THE UNIVERSITY OF CALIFORNIA, priority 2021, published 2025)
Each block holds one molecule with its values, some of them ahead of it.

How the values were obtained:
[1] = system: mouse distal colonic loops; assay: Oxalate absorption in closed distal colonic loops; assay type: in vivo; details: luminal 10 μM, 500 μM oxalate, 60 min
Method: To investigate DRAinh-A270 inhibition of intestinal oxalate transport, experiments were conducted using closed distal colonic loops in which SLC26A3 is the major apical membrane anion transporter. Colonic loops were injected with the solution containing 500 μM sodium oxalate and loop fluid was removed at 60 min to quantify remaining oxalate concentration. To avoid confounding effects of fluid absorption, Cl^−-free solution with amiloride (to block ENaC) was used.

SLC26A3 [2] = target: T1, SLC26A3 (Mus musculus, UniProt Q9WVC8); assay: Transepithelial oxalate transport in FRT monolayers expressing SLC26A3; assay type: cell-based; details: pretreatment 15 min, even at 0.1 μM; 500 μM oxalate gradient
T1 sequence (Q9WVC8 1-757): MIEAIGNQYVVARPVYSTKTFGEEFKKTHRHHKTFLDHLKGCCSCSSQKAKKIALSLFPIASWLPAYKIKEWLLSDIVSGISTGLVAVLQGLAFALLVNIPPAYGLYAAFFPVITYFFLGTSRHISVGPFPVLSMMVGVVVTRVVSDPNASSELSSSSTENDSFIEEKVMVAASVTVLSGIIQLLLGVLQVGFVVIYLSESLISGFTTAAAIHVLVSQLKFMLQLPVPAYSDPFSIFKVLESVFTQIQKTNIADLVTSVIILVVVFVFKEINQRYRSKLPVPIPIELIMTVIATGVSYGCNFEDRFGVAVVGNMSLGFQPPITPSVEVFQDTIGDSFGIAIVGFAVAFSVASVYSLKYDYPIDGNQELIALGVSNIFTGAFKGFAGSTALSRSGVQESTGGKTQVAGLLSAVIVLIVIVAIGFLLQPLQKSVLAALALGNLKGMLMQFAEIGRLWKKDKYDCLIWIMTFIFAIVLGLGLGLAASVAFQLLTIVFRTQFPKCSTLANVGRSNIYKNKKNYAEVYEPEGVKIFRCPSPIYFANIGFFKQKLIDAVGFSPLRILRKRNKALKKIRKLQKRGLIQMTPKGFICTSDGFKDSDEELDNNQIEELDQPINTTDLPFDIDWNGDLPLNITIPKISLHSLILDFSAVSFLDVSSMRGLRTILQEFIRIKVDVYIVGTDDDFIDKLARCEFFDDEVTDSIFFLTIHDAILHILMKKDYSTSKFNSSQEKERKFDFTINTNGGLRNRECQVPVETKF
Method: In order to determine the effects of DRAinh-A270 on oxalate transport at physiologically relevant concentrations, transepithelial oxalate transport was measured in Fischer rat thyroid (FRT) monolayers expressing SLC26A3 (FRT-A3 cells) permeable filters and exposed to a 500 μM oxalate concentration gradient.
Oxalate transport rate plotted for studies done in FRT cells expressing SLC26A3 (FRT-A3) pretreated with indicated concentrations of DRAinh-A270 (or DMSO control) for 15 min prior to application of the oxalate gradient. FRT cells not expressing SLC26A3 (FRT-null) are shown as controls. Mean±S.E.M., n=6-12 wells per condition. One-way analysis of variance with post hoc Newman-Keuls multiple comparisons test, **p<0.01, ns: not significant.

DRA = target: T2, DRA (Mus musculus, UniProt Q9WVC8); assay: Extracellular action: reversal of DRA inhibition after washout; assay type: cell-based; details: cells incubated 10 min at 5 times IC50; measured at 20-30 second after washout
T2 sequence (Q9WVC8 1-757): T1 sequence (Q9WVC8 1-757)
Method: Inhibition was then measured without washout and at 20-30 second after washout.

SLC26A3 [3] = target: T1, SLC26A3; assay: SLC26A3 inhibition, concentration-dependence (high throughput screening and structure-activity studies); assay type: cell-based

SMILES: Cc1c(CC(=O)O)c(=O)oc2c(C)c(OCc3cccc(I)c3)ccc12 [DRAinh-A270]
- reduction of oxalate absorption compared to vehicle control [1]: ~70%
- increased oxalate transport in FRT-A3 cells (SLC26A3 [2]): largely blocked
- reversal of inhibition after washout (DRA): no reversal

SMILES: Cc1ccc(COc2ccc3oc(-c4ccccc4)c(C(=O)O)c3c2)cc1 [DRAinh-H0163]
- IC50 (SLC26A3 [3]; Class H, Table 4): 190 nM

SMILES: O=C(O)c1c(-c2ccccc2)oc2ccc(OCc3ccc(Cl)c(Cl)c3)cc12 [DRAinh-H0493]
- IC50 (SLC26A3 [3]; Class H, Table 4): 2300 nM

SMILES: Cc1ccccc1COc1ccc2oc(-c3ccccc3)c(C(=O)O)c2c1 [DRAinh-H0696]
- IC50 (SLC26A3 [3]; Class H, Table 4): 340 nM

The remaining lines, values ahead:

- IC50 (SLC26A3 [3]; Class E, Table 1): 690 nM
SMILES: CC(C)CN1C(=O)c2ccc(C(=O)Nc3ccccc3C(=O)O)cc2C1=O [DRAinh-E0078]

- IC50 (SLC26A3 [3]; Class E, Table 1): 310 nM
SMILES: Cc1ccc(N2C(=O)c3ccc(C(=O)Nc4ccccc4C(=O)O)cc3C2=O)cc1C [DRAinh-E2333]

- IC50 (SLC26A3 [3]; Class F, Table 2): 470 nM
SMILES: Cc1cccc(NS(=O)(=O)c2nnc(NC(=O)c3cccc(C)c3)s2)c1 [DRAinh-F0165]

- IC50 (SLC26A3 [3]; Class F, Table 2): 310 nM
SMILES: COc1cccc(C(=O)Nc2nnc(S(=O)(=O)Nc3cccc(C)c3)s2)c1 [DRAinh-F0170]
